Patent EP0647645A1, “Novel antitumoral and antiviral compound” (PHARMA MAR, S.A., priority 1993, dated 1995)

Legend:
P-388 cells = assay: antitumoral assay, P-388 cell growth inhibition (cell counting); type: cell-based, DBA/2 mouse; conditions: three days of incubation
Procedure: (§1) Pateamine was diluted in MeOH/CH₂Cl₂ 1:1 at 100 ng/ml and it has been tested at different concentrations. The solvent was added to evaporate before the cells were seeded.
(§2) Four general antitumoral assays, employing the currently accepted screening protocols have been carried out using the following cells: P-388 (lymphoid neoplasm from DBA/2 mouse) A-549 (human lung carcinoma) HT-29 (human colon carcinoma) KB (human oral epidermoid carcinoma)
P-388 cells were seeded into 16 mm wells at 1 x 10⁴ per well in 1 ml aliquots of MEM 10FCS containing the indicated concentration or drug. All determinations were carried out in duplicate. After three days of incubation cells were counted and the IC₅₀ was determined. DATA TABLE-I

A-549 cells = assay: antitumoral assay, A-549 cell growth inhibition (cell counting); type: cell-based, human; conditions: three days of incubation
Procedure: as §1, §2
(§3) A-549 cells were seeded into 16 mm wells at 2 x 10⁴ per well. The day after the inoculum was replaced by 1 ml aliquots of MEM 10FCS containing the indicated concentration of drug. All determination were carried out in duplicate. After three days of incubation cells were counted and the IC₅₀ was determined. DATA TABLE-II

HT-29 cells = assay: antitumoral assay, HT-29 cell growth inhibition (cell counting); type: cell-based, human; conditions: four days of incubation
Procedure: as §1, §2
as §3, with “HT-29” for “A-549”, “4” for “2”, “determinations” for “determination”, “four” for “three”, “TABLE-III” for “TABLE-II”

KB cells = assay: antitumoral assay, KB cell growth inhibition (cell counting); type: cell-based, human; conditions: four days of incubation
Procedure: as §1, §2
as §3, with “KB” for “A-549”, “X” for “x”, “10⁴ cells” for “10⁴”, “determinations” for “determination”, “four” for “three”, “TABLE-IV” for “TABLE-II”

CV-1 cells [1] = assay: cytotoxicity assay, CV-1 cell growth inhibition (cell counting); type: cell-based, monkey; conditions: four days of incubation
Procedure: as §1
(§4) Two types of cytotoxicity assays were conducted, one of them employing conventional screening protocols and the other using the MTT method. In both cases the cells were: CV-1 (monkey kidney fibroblast) BHK (hamster kidney fibroblast)
as §3, with “CV-1” for “A-549”, “determinations” for “determination”, “four” for “three”, “TABLE-V” for “TABLE-II”

BHK cells [2] = assay: cytotoxicity assay, BHK cell growth inhibition (cell counting); type: cell-based, hamster; conditions: three days of incubation
Procedure: as §1, §4
as §3, with “BHK” for “A-549”, “X” for “x”, “determinations” for “determination”, “TABLE-VI” for “TABLE-II”

CV-1 cells [3] = assay: cytotoxicity assay, MTT method, CV-1 cells; type: cell-based, monkey; conditions: three days of incubation
Procedure: as §4
(§5) CV-1 and BHK cells were seeded into 9 mm wells at 1 x 10⁴ cells per well (logarithmic phase) and at 2 x 10⁵ cells per well (stationary phase). The day after the inoculum was replaced by […] aliquots of MEM 10FCS containing different concentrations of drug. All determinations were carried out in duplicate. After three days of incubation, 50 µl of medium containing 100 µg of MTT were added. Plates were incubated for two hours, medium was removed and 100 µl of isopropanol were added. The absorbencies were determined with a microtiter reader. DATA TABLE-VII

BHK cells [4] = assay: cytotoxicity assay, MTT method, BHK cells; type: cell-based, hamster; conditions: three days of incubation
Procedure: as §4, §5

[5] = system: HSV-1 (herpes simplex virus, type 1); assay: antiviral assay, plaque reduction, HSV-1 in CV-1 cells; type: cell-based
[6] = system: VSV (vesicular stomatitis virus); type: cell-based
P388 cell line = assay: P388 assay of fractions during isolation; type: cell-based; conditions: isolation fractions and free base form
Procedure: The sponge N.sp2 was extracted with methanol and a 3:1 mixture of methanol dichloromethane. An aqueous suspension of the entire 1 Kg extract of Mycale was extracted with three equivalent volumes of chloroform which was in turn back-extracted with distilled water. The organic extract (7.5 g) was loaded onto a C₁₈ flash column (200 g freshly prepared). Elution was started with 50% water/methanol, the methanol content was increased in steps to 100%, and then dichloromethane was added in gradual increments to 50%. Sixteen fractions were collected, weighed and assayed. Good total recovery of mass and activity was obtained with most of the activity confined to one fraction. […] A gradient solvent system was used (CH₂Cl₂, EtOAc, MeOH) and the fractions were monitored by TLC. Much of the fatty acids and pigments were eluted with the mixtures of CH₂Cl₂ and EtOAc, while a yellow charring (H₂SO₄ on silica) material came off in 5 - 20% MeOH in EtOAc. The fractions containing the yellow char were combined to yield a mass of 240 mg. […] This fraction was further purified using amino cartridges (500 mg). The activity was eluted with MeOH to yield 45 mg of material (IC₅₀ 0.5 ng/ml P388). Final purifications was obtained on a LH20 column using the eluting solvent system 9:1 MeOH/CH₂Cl₂ with 2% concentrated aqueous ammonia. This was selected to keep the active component in a free base form. […]

Balb/c lymphocytes = type: cell-based, mice
CV-1 cells [7] = assay: cytotoxicity in antiviral assay, inhibition zone on the CV-1 cell sheet; conditions: CV-1/HSV-1

Substance: pateamine
- % Inhibition P-388 cell growth (P-388 cells; 0.1ng): 11%
- % Inhibition P-388 cell growth (P-388 cells; 0.5ng): 0%
- % Inhibition P-388 cell growth (P-388 cells; 1ng): 100%
- % Inhibition P-388 cell growth (P-388 cells; 5ng): 100%
- % Inhibition P-388 cell growth (P-388 cells; 10ng): 100%
- IC₅₀ ng/ml approx. (P-388 cells; P-388 cell growth): ~0.3 ng/mL
- % Inhibition A-549 cell growth (A-549 cells; 0.1ng): 0%
- % Inhibition A-549 cell growth (A-549 cells; 0.5ng): 0%
- % Inhibition A-549 cell growth (A-549 cells; 1ng): 71%
- % Inhibition A-549 cell growth (A-549 cells; 5ng): 100%
- % Inhibition A-549 cell growth (A-549 cells; 10ng): 100%
- IC₅₀ ng/ml approx. (A-549 cells; A-549 cell growth): ~0.7 ng/mL
- % Inhibition HT-29 cell growth (HT-29 cells; 0.1ng): 0%
- % Inhibition HT-29 cell growth (HT-29 cells; 0.5ng): 0%
- % Inhibition HT-29 cell growth (HT-29 cells; 1ng): 35%
- % Inhibition HT-29 cell growth (HT-29 cells; 5ng): 85%
- % Inhibition HT-29 cell growth (HT-29 cells; 10ng): 91%
- IC₅₀ ng/ml approx. (HT-29 cells; HT-29 cell growth): ~2 ng/mL
- % Inhibition KB cell growth (KB cells; 0.1ng): 70%
- % Inhibition KB cell growth (KB cells; 0.5ng): 67%
- % Inhibition KB cell growth (KB cells; 1ng): 96%
- % Inhibition KB cell growth (KB cells; 5ng): 100%
- % Inhibition KB cell growth (KB cells; 10ng): 100%
- IC₅₀ ng/ml approx. (KB cells; KB cell growth): <0.05 ng/mL
- % Inhibition CV-1 cell growth (CV-1 cells [1]; 0.1ng): 0%
- % Inhibition CV-1 cell growth (CV-1 cells [1]; 0.5ng): 0%
- % Inhibition CV-1 cell growth (CV-1 cells [1]; 1ng): 31%
- % Inhibition CV-1 cell growth (CV-1 cells [1]; 5ng): 84%
- % Inhibition CV-1 cell growth (CV-1 cells [1]; 10ng): 100%
- IC₅₀ ng/ml approx. (CV-1 cells [1]; CV-1 cell growth): ~2.4 ng/mL
- % Inhibition BHK cell growth (BHK cells [2]; 0.1ng): 0%
- % Inhibition BHK cell growth (BHK cells [2]; 0.5ng): 0%
- % Inhibition BHK cell growth (BHK cells [2]; 1ng): 0%
- % Inhibition BHK cell growth (BHK cells [2]; 5ng): 98%
- % Inhibition BHK cell growth (BHK cells [2]; 10ng): 100%
- IC₅₀ ng/ml approx. (BHK cells [2]; BHK cell growth): ~3 ng/mL
- IC₅₀ (CV-1 cells [3]; log. phase): 2.4 ng/mL
- IC₅₀ (CV-1 cells [3]; stat. phase): >100 ng/mL
- IC₅₀ (BHK cells [4]; log. phase): 3.7 ng/mL
- IC₅₀ (BHK cells [4]; stat. phase): >100 ng/mL
- % Inhibition CV-1/HSV-1 (plaque reduction sign) ([5]; 20ng): + (The sign (+), indicates that plaques are reduced by approx. 50-60%.)
- % Inhibition CV-1/HSV-1 (plaque reduction sign) ([5]; 40ng): ++ (The sign (+ +), indicates that plaques are reduced by approx. 70-90%.)
- % Inhibition CV-1/HSV-1 (plaque reduction sign) ([5]; 100ng): +++ (The sign (+ + +), indicates that plaques are reduced 100%.)
- % Inhibition CV-1/HSV-1 (plaque reduction sign) ([5]; 200ng): +++ (The sign (+ + +), indicates that plaques are reduced 100%.)
- % Inhibition CV-1/HSV-1 (plaque reduction sign) ([5]; 400ng): +++ (The sign (+ + +), indicates that plaques are reduced 100%.)
- IC₅₀ ng/disk ([5]; CV-1/HSV-1, ( + ) is the approximately IC₅₀): 20 ng/disk
- IC₅₀ ng/disk [6]: >20 ng/disk
- IC₅₀ (P388 cell line): 0.15 ng/mL
- IC₅₀ for the LcV (Balb/c lymphocytes): 4.1 µg/mL
- cytotoxicity for the cells, inhibition zone on the cell sheet (CV-1 cells [7]; 10ng): 6
- cytotoxicity for the cells, inhibition zone on the cell sheet (CV-1 cells [7]; 20ng): 10
- cytotoxicity for the cells, inhibition zone on the cell sheet (CV-1 cells [7]; 40ng): 12
- cytotoxicity for the cells, inhibition zone on the cell sheet (CV-1 cells [7]; 100ng): 14
- cytotoxicity for the cells, inhibition zone on the cell sheet (CV-1 cells [7]; 200ng): 16
- cytotoxicity for the cells, inhibition zone on the cell sheet (CV-1 cells [7]; 400ng): 16
